Key:
[1] = test system: lentiviruses coding EGFP and coated with FuG-C hybrid envelope protein; assay type: cell-based
[2] = test system: VLPs coated with VSV envelope protein; assay type: biochemical, Ebola virus
[3] = test system: VLPs coated with Marburg virus envelope protein; assay type: biochemical, Ebola virus
human erythrocytes = conditions: pH 7.4
equine erythrocytes = conditions: pH 7.4

Substance	concentrations that effectively block the virus entry [1]	inhibitory effect on lentivirus infectivity [1]	virolytic activity on enzymatic VLPs [2]	virolytic activity on enzymatic VLPs [3]	hemolytic activity (human erythrocytes)	hemolytic activity (equine erythrocytes)	amount of produced GFP (GFP fluorescence of cell lysates) [1]
GALA	above 5 μM	remarkably potent inhibitor	moderate virolytic activity	moderate virolytic activity	–	–	–
Hecate	–	substantial antiviral effect	–	–	moderately lyse human erythrocytes	virtually no effect on equine RBCs	–
WEAKLAKALAKALAKHLAKALAKALKACEA	–	substantial antiviral effect	–	–	moderate hemolytic activity	moderate hemolytic activity	might slightly increase the amount of produced GFP but the increase is not significant

From PMC7115697 (Peptides, 2016)
